Results reported in article PMC5429769, “Rational development of Stafib-2: a selective, nanomolar inhibitor of the transcription factor STAT5b” (Scientific Reports, 2017).
Entries after “also recorded” stand apart in the source; their conditions may differ.

Columns and labels:
[1] = biological target: T1, STAT5a SH2 domain (Homo sapiens, UniProt P42229); assay: Fluorescence polarization assay, STAT5a SH2 domain; type: binding; conditions: mean ± s.d.; for Ki: converted from IC50 using the published equation, n = 3; for IC50: fluorescence polarization, three independent experiments
T1 sequence (P42229 1-794): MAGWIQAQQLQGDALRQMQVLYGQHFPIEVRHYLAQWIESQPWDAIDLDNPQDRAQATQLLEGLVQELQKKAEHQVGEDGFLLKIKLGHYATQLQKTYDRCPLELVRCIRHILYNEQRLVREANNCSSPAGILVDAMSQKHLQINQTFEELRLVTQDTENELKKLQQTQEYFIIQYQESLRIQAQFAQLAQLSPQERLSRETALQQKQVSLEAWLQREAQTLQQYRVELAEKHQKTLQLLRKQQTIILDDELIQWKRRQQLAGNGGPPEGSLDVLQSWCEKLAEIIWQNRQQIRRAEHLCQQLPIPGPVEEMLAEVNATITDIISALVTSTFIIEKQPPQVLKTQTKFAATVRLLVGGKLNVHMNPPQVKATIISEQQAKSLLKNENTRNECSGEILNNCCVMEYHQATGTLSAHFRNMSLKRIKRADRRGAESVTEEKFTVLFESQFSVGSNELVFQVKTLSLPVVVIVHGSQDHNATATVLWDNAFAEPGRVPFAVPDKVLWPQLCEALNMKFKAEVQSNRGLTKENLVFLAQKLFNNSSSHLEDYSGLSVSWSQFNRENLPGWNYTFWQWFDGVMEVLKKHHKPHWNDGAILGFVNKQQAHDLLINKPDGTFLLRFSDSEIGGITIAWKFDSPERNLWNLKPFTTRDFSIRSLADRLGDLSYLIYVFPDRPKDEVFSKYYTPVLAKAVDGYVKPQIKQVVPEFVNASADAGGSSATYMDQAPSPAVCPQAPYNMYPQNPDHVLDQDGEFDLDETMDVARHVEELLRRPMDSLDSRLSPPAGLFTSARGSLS

[2] = biological target: T2, STAT5b SH2 domain (Homo sapiens, UniProt P51692); assay: Fluorescence polarization assay, STAT5b SH2 domain; type: binding; conditions: for Ki: converted from IC50 using the published equation, n = 3; for Ki / IC50: mean ± s.d.; for IC50: fluorescence polarization, three independent experiments
T2 sequence (P51692 1-787): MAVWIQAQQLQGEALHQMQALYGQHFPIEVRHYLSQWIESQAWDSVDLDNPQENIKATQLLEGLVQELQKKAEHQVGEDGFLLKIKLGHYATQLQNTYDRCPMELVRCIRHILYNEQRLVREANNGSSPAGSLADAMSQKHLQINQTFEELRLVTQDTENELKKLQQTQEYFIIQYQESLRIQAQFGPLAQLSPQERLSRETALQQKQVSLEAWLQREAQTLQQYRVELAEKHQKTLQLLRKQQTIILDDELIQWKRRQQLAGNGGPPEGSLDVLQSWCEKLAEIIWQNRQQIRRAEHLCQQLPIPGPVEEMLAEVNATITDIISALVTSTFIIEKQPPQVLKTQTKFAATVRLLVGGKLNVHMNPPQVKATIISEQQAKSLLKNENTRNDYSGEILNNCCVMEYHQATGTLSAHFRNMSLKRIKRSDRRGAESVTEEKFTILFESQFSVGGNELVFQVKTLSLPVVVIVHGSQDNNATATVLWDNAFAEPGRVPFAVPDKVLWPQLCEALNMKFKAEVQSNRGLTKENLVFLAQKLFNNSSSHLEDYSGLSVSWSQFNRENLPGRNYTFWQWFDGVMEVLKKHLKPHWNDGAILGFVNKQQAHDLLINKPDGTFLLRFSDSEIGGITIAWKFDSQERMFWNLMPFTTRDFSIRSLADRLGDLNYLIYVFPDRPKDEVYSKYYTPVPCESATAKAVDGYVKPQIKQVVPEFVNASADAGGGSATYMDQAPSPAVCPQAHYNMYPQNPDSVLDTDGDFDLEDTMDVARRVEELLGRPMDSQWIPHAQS

[3] = system: K562 cells; assay: Apoptosis assay (Annexin V / 7-AAD flow cytometry), K562 cells; type: cell-based, human; conditions: untransfected K562 cells, 48 h, result in words
[4] = system: MDA-MB-231 cells; assay: Apoptosis assay (Annexin V / 7-AAD flow cytometry), MDA-MB-231 cells; type: cell-based; conditions: MDA-MB-231 cells (STAT5-independent), 48 h, result in words
[5] = system: STAT5a-GFP; assay: STAT5a Tyr694 phosphorylation in STAT5a-GFP-transfected K562 cells (Western blot); type: cell-based, human; conditions: 4 h, result in words
[6] = biological target: T3, STAT5b-GFP (Homo sapiens, UniProt P51692); assay: STAT5b Tyr699 phosphorylation in STAT5b-GFP-transfected K562 cells (Western blot); type: cell-based; conditions: STAT5b-GFP-transfected K562 cells
T3 sequence (P51692 1-787): T2 sequence (P51692 1-787)

[7] = system: endogenous STAT5; assay: Tyrosine phosphorylation of endogenous total STAT5 in STAT5a/b-GFP-transfected K562 cells; type: cell-based, human; conditions: result in words
[8] = system: STAT5b-GFP; assay: STAT5b Tyr699 phosphorylation in STAT5b-GFP-transfected K562 cells (Western blot); type: cell-based, human; conditions: STAT5b-GFP-transfected K562 cells, 4 h, result in words

Structure (SMILES)	Ki [1]	IC50 [1]	Ki [2]	IC50 [2]	inhibition of STAT5a phosphorylation [5]	further results
O=C(COc1ccc(C(=O)Nc2ccccc2)cc1)NCc1ccc(OP(=O)(O)O)c(OP(=O)(O)O)c1 [compound 5]	4800 ± 100 nM	9700 ± 300 nM	110 ± 10 nM	280 ± 10 nM	–	–
O=C(COc1ccc(C(=O)Nc2ccc(Oc3ccccc3)cc2)cc1)NCc1ccc(O)c(O)c1 [compound 7]	–	–	–	–	–	STAT5b inhibition ([2]; at 80 µM): lack of activity; also recorded: no inhibition at 80 µM
CC(C)(C)C(=O)OCOP(=O)(OCOC(=O)C(C)(C)C)Oc1ccc(CNC(=O)COc2ccc(C(=O)Nc3ccc(Oc4ccccc4)cc3)cc2)cc1OP(=O)(OCOC(=O)C(C)(C)C)OCOC(=O)C(C)(C)C [compound 8, ((((4-((2-(4-((4-Phenoxyphenyl)carbamoyl)phenoxy)acetamido)methyl)-1,2-phenylene)bis(oxy))bis(oxo-l5-phosphanetriyl))tetrakis(oxy))tetrakis(methylene) tetrakis(2,2-dimethylpropanoate)]	–	–	–	–	not significantly reduced; also recorded: not inhibited	apoptotic rate [3]: dose-dependent increase; also recorded: increased; apoptotic rate [4]: does not increase; also recorded: not increased; inhibition of STAT5a phosphorylation ([5]; listed as Pomstafib-2): without significantly affecting; fold more active against STAT5b phosphorylation than the pivaloyloxymethylesters of 2 and of Capstafin [6]: 2.5 fold; inhibition of STAT5b phosphorylation ([6]; 4 h, result in words): Dose-dependent inhibition; inhibition of phosphorylation of endogenous STAT5 [7]: inhibited
CC(C)(C)C(=O)OCOP(=O)(Cc1ccccc1CP(=O)(OCOC(=O)C(C)(C)C)OCOC(=O)C(C)(C)C)OCOC(=O)C(C)(C)C [compound 9, reference compound]	–	–	–	–	lack of inhibition	inhibition of STAT5b phosphorylation [8]: lack of inhibition
O=C(COc1ccc2cc(C(=O)Nc3ccc(Oc4ccccc4)cc3)ccc2c1)NCc1ccc(OP(=O)(O)O)c(OP(=O)(O)O)c1 [compound 3]	2900 ± 100 nM	5800 ± 300 nM	93 ± 3 nM	190 ± 10 nM	–	fold less active than 2 ([2]; STAT5b Ki relative to 2): 2 fold
